Experimental data reported in article PMC4335872, “Pharmacokinetic-Pharmacodynamic Analysis of Spiroindolone Analogs and KAE609 in a Murine Malaria Model” (Antimicrobial Agents and Chemotherapy, 2015).
“Also recorded” adds a separate entry of the source.

Key:
[1] = In vivo PK after single p.o. and i.v. dosing in CD-1 mice; parameters: species or system female CD-1 mice; details: CD-1 mice; for CL / Vss / t1/2 (i.v.): i.v. 5 mg/kg; for F (oral bioavailability): oral 25 mg/kg vs i.v. 5 mg/kg; for AUC0–24 / Tmax / t1/2 (oral) / Cmax: single oral dose 25 mg/kg; for Cmax: plasma
Method: The Institutional Animal Care and Use Committee (IACUC) of the Novartis Institute for Tropical Diseases (NITD), registered with the Agri-Food and Veterinary authority (AVA), Government of Singapore, reviewed and approved all animal experimental protocols. […] The mice were allowed to acclimate before the initiation of the experiments. Feed and water were given ad libitum. […] The blood samples from the mice were collected at 0.02 (for i.v. only), 0.08, 0.25, 0.5, 1, 2, 4, 8, 16, and 24 h postdosing. The dose proportionality studies were conducted with KAE609. […] Additional samples were collected at 32 h and 48 h postdose for the 1- and 5-mg/kg dose groups and up to 72 h postdose for the 100-mg/kg dose group. Groups of three mice were used for each time point. Blood was centrifuged at 13,000 rpm for 7 min at 4°C, and plasma was harvested and stored at -20°C until analysis. […] After vortexing and centrifuging the mixture, the supernatant was removed and 5 μl of sample analyzed. Analyte quantitation was performed by high-performance liquid chromatography coupled with tandem mass spectrometry (LC-MS/MS). […] Instrument control and data acquisition were performed using the Applied Biosystems software Analyst 1.4.2. […] Multiple-reaction monitoring (MRM) was combined with optimized MS parameters to maximize detection specificity and sensitivity. The most intense MRM transitions [338.3/295.1 for (+)-1, 370.1/327.0 for (+)-2, 370.0/326.9 for (+)-3, 354.1/310.8 for (+)-4, 354.1/311.2 for (+)-5, 372.1/329.1 for (+)-6, 388.0/331.8 for (+)-7, 372.1/316.1 for (-)-6, and 388/332 for (-)-7] were used for quantitation. Most compounds were analyzed using electrospray ionization in the negative mode, except (+)-1, which was analyzed using positive mode. The recovery of the compounds from plasma was good and consistent across the concentration range studied. The lower limits of quantification for different compounds ranged from 1.3 to 70 ng/ml in plasma. A calibration curve was freshly prepared and analyzed with every set of study samples. Intraday variability was established with triplicate quality control samples at three concentration levels. The results were accepted if relative standard deviation was <15%. The mean values of the compound concentrations in plasma were obtained from three animals at each time point and plotted against time to generate concentration-time profiles. […] The oral bioavailability (F) was calculated as the ratio between the area under the concentration-time curve from 0 to infinity (AUC0-∞) following oral administration and the AUC0-∞ following intravenous administration corrected for dose (F = […].).

[2] = Intrinsic clearance in mouse liver microsomes; type: in vitro ADME; details: per mg protein
Source text: page 5: Running title: PreclinicalPK -PD of antimalarials 73 to high through put form at using in- house standard assa y protocols that are described in the 74 literature. 75 (a)HT-Equilibrium solubilit y at pH 6.8( 1); (b)Parallel Artificial Membrane P ermeability Assa y 76 expressed in % fraction absorbed (FA) ( 2,3 ); (c)Apparent permeability from apical to […] 78 tested; (d)intrinsic clearance in mouse liver micro somes ex pressed as µ L/ min/mg protein, in 79 the presen ce of liver enzym es ( 6); (e)Mous e plasm a protein binding using rapid equilibrium […] 81 82 83 84 85 86 87 88 89 90 91 92 93 94 95 96 97 98 5

[3] = test system: P. berghei GFP ANKA malaria strain PbGFPCON; experiment: Dose-response efficacy in the P. berghei malaria mouse model; type: in vivo, female NMRI mice; details: for Hill slope: dose vs parasitemia model; for Pmax (maximum parasitemia) / Pmin (minimum parasitemia): sigmoid dose-response model, single oral doses 24 h postinfection; for Pmax (maximum parasitemia) / Pmin (minimum parasitemia) / ED90 (effective dose causing a 90% reduction in parasitemia): parasitemia 72 h postinfection; for ED90 (effective dose causing a 90% reduction in parasitemia): single oral dose 24 h postinfection; for Efficacy in the P. berghei mouse model: single oral doses 2.5 to 100 mg/kg
Source text: All in vivo studies conducted at the Swiss Tropical and Public Health Institute (TPH) adhered to local and national regulations of laboratory animal welfare in Switzerland (permission no. 1731). For in vivo efficacy, female (specific-pathogen-free) […] (NMRI) mice were obtained from Janvier, Le Genest-Saint-Isle, France. Only mice without visible signs of disease were used for the study. Standard laboratory conditions were adopted for husbandry. In vivo antimalarial activity was assessed using groups of five female NMRI mice (20 to 22 g) intravenously infected on day zero with 2 × 10^7 erythrocytes parasitized with P. berghei GFP ANKA malaria strain PbGFPCON (a donation from A. P. Waters and C. J. Janse, Leiden University) ([39]). Untreated control mice typically died between day six and day seven postinfection. Experimental compounds were formulated in 10% ethanol, 30% PEG 400, and 60% of 10% vitamin E TPGS and were administered orally in a volume of 10 ml/kg. Dose-response efficacy studies were conducted for each spiroindolone analog. Doses of 2.5, 5, 10, 30, and 100 mg/kg were administered to groups of 5 mice each as a single dose at 24 h postinfection. Parasitemia, expressed as parasitized red blood cells (pRBCs) of >100 RBCs, was determined 72 h postinfection using standard flow cytometry techniques ([39]).
Data analysis was done using nonlinear mixed-effect modeling (NONMEM version VI 2.0), which analyzed the PD data from multiple dose groups obtained simultaneously from different experiments. Within NONMEM, first-order conditional estimation (FOCE) was the method used ([40]). The log-transformed dose and level of parasitemia were used for analysis. For each compound, a dose-response model was built, and the ED90 (effective dose lowering 90% of parasitemia) values were determined using equation 1 ([41]), where P is the parasitemia measured at any given dose, Pmax is the maximum level of parasitemia, Pmin is the minimum level of parasitemia, EZ50 is the dose required to produce 50% of the maximal effect, s is the Hill slope describing the steepness of the curve, and x is the dose (in mg/kg). 1 P=Pmin +{[Pmax−Pmin]/[1+10^(logEZ50−log x)×s]}

[4] = test system: P. berghei GFP ANKA PbGFPCON; experiment: In vitro (ex vivo) P. berghei maturation assay; type: cell-based, Plasmodium berghei; details: 16 h + 8 h incubation; read-out: IC50 (mean ± SD) for P. berghei GFP ANKA PbGFPCON (n = 3)
Method: For the in vitro (ex vivo) P. berghei maturation assays ([38]), heparinized blood from infected mice (P. berghei GFP ANKA malaria strain PbGFPCON, a donation from A. P. Waters and C. J. Janse, Leiden University, Leiden, the Netherlands) ([39]) was washed with 9 ml of hypoxanthine-free culture medium and diluted with hypoxanthine-free culture medium and red blood cells (RBCs) from uninfected mice to a hematocrit of 5% and a parasitemia of 0.3%. Serial compound dilutions were prepared in DMSO and distributed as described above. The infected erythrocytes (0.3% final parasitemia and 2.5% final hematocrit) were added into the wells. After the plates were incubated for 16 h, 0.25 μCi of [^3H]hypoxanthine was added per well, and the plates were incubated for an additional 8 h. The parasites were harvested, and the in vitro (ex vivo) P. berghei IC50, IC90, and IC99 values were determined as described above.

Compound	CL [1] [mL/min/kg]	Vss [1] [L/kg]	t1/2 (i.v.) [1] [h]	F (oral bioavailability) [1] [%]	AUC0–24 [1] [µg·h/mL]	Tmax [1] [h]	t1/2 (oral) [1] [h]	Cmax [1] [µg/mL]	Hepatic CLint in mouse liver microsomes [2] [µL/min/mg]	Hill slope [3]	Pmax (maximum parasitemia) [3]	Pmin (minimum parasitemia) [3]	ED90 (effective dose causing a 90% reduction in parasitemia) [3] [mg/kg]	IC50 [4] [nM]	Efficacy in the P. berghei mouse model [3]
C[C@H]1Cc2c([nH]c3ccc(F)cc23)[C@@]2(N1)C(=O)Nc1ccc(Cl)cc12 [(+)-4]	24.0	1.9	4.7	26	3.9	0.25	5.6	1.0	330	−2.87	30.90	0.03	16.7	104 ± 53	
C[C@H]1Cc2c([nH]c3cc(F)ccc23)[C@@]2(N1)C(=O)Nc1ccc(Cl)cc12 [(+)-5]	11.8	1.6	3.8	47	17.7	0.25	4.0	3.1	26	−2.99	25.70	0.05	38.1	88 ± 26	
C[C@H]1Cc2c([nH]c3cc(Cl)ccc23)[C@@]2(N1)C(=O)Nc1ccc(Cl)cc12 [(+)-3]	60.1	13.7	4.3	91	5.8	2	6.2	0.7	35	−6.4	24.55	0.12	17.9	140 ± 54	
C[C@@H]1Cc2c([nH]c3cc(F)c(F)cc23)[C@]2(N1)C(=O)Nc1ccc(Cl)cc12 [(−)-6]	4.2	2.8	13.2	78	68.2	2	7.9	5	36					2850	no efficacy; also recorded: poor efficacy regardless of dose
C[C@H]1Cc2c([nH]c3ccc(Cl)cc23)[C@@]2(N1)C(=O)Nc1ccc(Cl)cc12 [(+)-2]	92.6	9.9	4.6	62	2.9	1	4.3	0.6	92	−3.36	30.90	0.03	17.4	75 ± 32	
C[C@@H]1Cc2c([nH]c3cc(Cl)c(F)cc23)[C@]2(N1)C(=O)Nc1ccc(Cl)cc12 [(−)-7]	2.6	1.3	5.6	92	107.3	1	9.1	8.3	21					4910	no efficacy; also recorded: poor efficacy regardless of dose
